Peptide text beside a SMILES is read from it.
Key:
[1] = tested on: diet-induced obesity (DIO) mouse model; assay: DIO mouse model QD: obesity-related factors in plasma (Example 7-4); type: in vivo; conditions: DIO mice, QD (once daily), 45 nmol/kg/dose
Method: (§1) In addition, after the experiment was completed, blood and serum samples were obtained from each mouse model, and biochemical tests were performed for blood glucose, total cholesterol, high-density lipoprotein (HDL), low-density lipoprotein (LDL), and triglycerides.
The anti-obesity effects of SEQ ID NO: 1 prepared in Example 1, and SEQ ID NOs: 6 and 7 prepared in Example 4 were analyzed. […] In addition, as an experimental model, a diet-induced obesity (DIO) mouse model fed a high-fat diet for 3 months was used.
To analyze the anti-obesity effect, mouse plasma was obtained postmortem to measure obesity-related factors in plasma. Here, the analysis method was the same as described in Example 3.

C57BL/6 DIO mice = assay: Diet-induced obesity mouse model: blood/serum biochemical tests (Example 3); type: in vivo; conditions: after 4 weeks, 0.20 mg/kg/dose (dose from Table 3)
Method: Here, the body weight and food intake were measured daily.
as §1

[2] = tested on: diet-induced obesity (DIO) mouse model; assay: DIO mouse model QD: liver weight and steatosis score, H&E (Example 8-2); type: in vivo, mice; conditions: QD (once daily), 45 nmol/kg/dose
Source text: To examine liver weight and steatosis, the liver weight elevated by obesity induction and the degree of steatosis after liver H&E staining were scored from grades 0 to 3 to compare the drug's hepatic efficacy. First, after the test was completed, the animal's liver was excised on the day of necropsy to confirm the liver efficacy of the drug. After measuring the weight of the excised liver, the intermediate lobes were frozen in liquid nitrogen for the subsequent measurement of triglycerides. The remaining portion of the liver was fixed in 10% neutral buffered formalin and subjected to histopathological examination.
For H&E analysis, the liver tissue fixed in the buffered formalin was put into an automatic tissue processor, embedded in paraffin, and then prepared into a paraffin block. Subsequently, the paraffin block was prepared into a tissue section, which was stained with hematoxylin & eosin (H&E). The stained tissue slide was observed using an optical microscope (BX61, Olympus, Japan) and photographed (DP80, Olympus, Japan).
Histopathological quantification of liver tissue was performed by scoring the degree of steatosis on H&E-stained slides from grades 0 to 3. The contents corresponding to each scoring grade are as follows.

[3] = tested on: diet-induced obesity (DIO) mouse model; assay: DIO mouse model QD: liver Oil Red O staining (Example 8-4); type: in vivo; conditions: DIO mice, QD (once daily), 45 nmol/kg/dose
Method: Finally, to confirm the anti-obesity effect in the liver, liver Oil Red O staining analysis was performed. ORO staining is a staining method used to detect triglycerides (fat) in adipose-related diseases, and used to differentiate fat embolism, liposarcoma, hepatic steatosis, and lipid accumulation disorders. In addition, it can also detect lipid complexes, such as phospholipids. For ORO analysis, liver tissue was processed in 30% sucrose in a refrigerator for 3 days to prepare frozen tissue sections, which were used to prepare OCT-embedded frozen blocks. Cryosections were prepared and stained with ORO.

SMILES: CCCCCCCCCCCCCCCC(=O)N[C@@H](CCC(=O)NCCCC[C@H](NC(=O)[C@H](CCCCN)NC(=O)[C@H](CC(=O)O)NC(=O)[C@@H](NC(=O)[C@@H](NC(=O)[C@H](CCCCN)NC(=O)[C@@H](NC(=O)[C@H](CCC(N)=O)NC(=O)[C@@H](NC(=O)[C@H](CC(C)C)NC(=O)[C@H](Cc1c[nH]c2ccccc12)NC(=O)[C@H](CC(N)=O)NC(=O)[C@@H](NC(=O)[C@H](Cc1ccccc1)NC(=O)[C@H](CC(=O)O)NC(=O)[C@H](CCCNC(=N)N)NC(=O)[C@H](C)NC(=O)[C@H](C)NC(=O)[C@H](CC(C)C)NC(=O)[C@H](C)NC(=O)[C@H](CC(=O)O)NC(=O)[C@H](CC(C)C)NC(=O)[C@H](Cc1ccc(O)cc1)NC(=O)[C@@H](NC(=O)[C@H](CO)NC(=O)[C@H](CC(C)C)NC(=O)[C@H](CC(=O)O)NC(=O)[C@H](CO)NC(=O)[C@@H](NC(=O)[C@H](Cc1ccccc1)NC(=O)[C@@H](NC(=O)CNC(=O)[C@H](CCC(=O)O)NC(=O)CNC(=O)[C@@H](N)Cc1c[nH]cn1)[C@@H](C)O)[C@@H](C)O)[C@@H](C)O)[C@@H](C)CC)[C@@H](C)CC)[C@@H](C)O)[C@@H](C)CC)[C@@H](C)O)C(=O)O)C(=O)O [HU020K2FA] (HELM PEPTIDE1{H.G.E.G.T.F.T.S.D.L.S.T.Y.L.D.A.L.A.A.R.D.F.I.N.W.L.I.Q.T.K.I.T.D.K.K}|PEPTIDE2{[CCCCCCCCCCCCCCCC(=O)[*:2]].[gGlu]}$PEPTIDE1,PEPTIDE2,35:R3-2:R2$$$V2.0; N-terminus and C-terminus assumed)
- HbA1c (%) ([1]; blood): 4.39±0.21%
- GLU ([1]; plasma): 209.2 ± 9.3 mg/dL
- HDL ([1]; plasma): 100.4 ± 9.3 mg/dL
- LDL ([1]; plasma): 8.9 ± 9.3 mg/dL
- TCHO ([1]; plasma): 198.6 ± 24.3 mg/dL
- TG ([1]; plasma): 75.1 ± 19.4 mg/dL
- Blood glucose (C57BL/6 DIO mice): 192.0 ± 20.2 mg/dL
- High-density lipoprotein (C57BL/6 DIO mice): 76.0 ± 4.0 mg/dL
- Low-density lipoprotein (C57BL/6 DIO mice): 9.8 ± 1.5 mg/dL
- Toal cholesterol (C57BL/6 DIO mice): 134.8 ± 10.7 mg/dL
- Triglyceride (C57BL/6 DIO mice): 13.6 ± 4.8 mg/dL
- Liver weight ([2]; DIO mice): 1.58±0.10
- Hepatic steatosis test (Score 0~3) ([2]; H&E, mean of grades 0 to 3, DIO mice): 0.97±0.47
- ORO positive area (%) [3]: 1.41±0.66%

From patent publication EP4741420A1, “PHARMACEUTICAL COMPOSITION FOR PREVENTING OR TREATING OBESITY COMPRISING GLP ANALOGUE AS ACTIVE INGREDIENT” (priority 2023, dated 2025)
